Experiments:
Experiment in all cases: relative viability (nuclei count vs DMSO), 5 days (fraction); higher = more cells survive
Elesclomol + Foretinib = compound: CN(NC(=O)CC(=O)NN(C)C(=S)c1ccccc1)C(=S)c1ccccc1 [Elesclomol] + COc1cc2c(Oc3ccc(NC(=O)C4(C(=O)Nc5ccc(F)cc5)CC4)cc3F)ccnc2cc1OCCCN1CCOCC1 [Foretinib] (partner 0.25 µM)
In short: (§1)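 Dosing by pin tool came one day after lung cancer cell lines were seeded in 1536-well plates, using either one drug or a fixed anchor-drug dose plus five library-drug doses (not always all listed) in √10 steps. After 5 days, nuclei were counted on 4× images. Relative viability is treated-well nuclei count divided by vehicle-well nuclei count, and values are medians of duplicate plates.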

Elesclomol + Dasatinib = compound: CN(NC(=O)CC(=O)NN(C)C(=S)c1ccccc1)C(=S)c1ccccc1 [Elesclomol] + Cc1nc(Nc2ncc(C(=O)Nc3c(C)cccc3Cl)s2)cc(N2CCN(CCO)CC2)n1 [Dasatinib] (partner 0.075 µM)
In short: as §1

Elesclomol + Trametinib = compound: CN(NC(=O)CC(=O)NN(C)C(=S)c1ccccc1)C(=S)c1ccccc1 [Elesclomol] + CC(=O)Nc1cccc(-n2c(=O)n(C3CC3)c(=O)c3c(Nc4ccc(I)cc4F)n(C)c(=O)c(C)c32)c1 [Trametinib] (partner 0.02 µM)
In short: as §1

Elesclomol + Lapatinib = compound: CN(NC(=O)CC(=O)NN(C)C(=S)c1ccccc1)C(=S)c1ccccc1 [Elesclomol] + CS(=O)(=O)CCNCc1ccc(-c2ccc3ncnc(Nc4ccc(OCc5cccc(F)c5)c(Cl)c4)c3c2)o1 [Lapatinib] (partner 2 µM)
In short: as §1

Elesclomol + Navitoclax = compound: CN(NC(=O)CC(=O)NN(C)C(=S)c1ccccc1)C(=S)c1ccccc1 [Elesclomol] + CC1(C)CCC(c2ccc(Cl)cc2)=C(CN2CCN(c3ccc(C(=O)NS(=O)(=O)c4ccc(N[C@H](CCN5CCOCC5)CSc5ccccc5)c(S(=O)(=O)C(F)(F)F)c4)cc3)CC2)C1 [Navitoclax] (partner 0.5 µM)
In short: as §1

| Cell Line | relative viability (Elesclomol + Foretinib; first compound 0.003162 µM) | relative viability (Elesclomol + Foretinib; first compound 0.01 µM) | relative viability (Elesclomol + Foretinib; first compound 0.03162 µM) | relative viability (Elesclomol + Foretinib; first compound 0.1 µM) | relative viability (Elesclomol + Dasatinib; first compound 0.003162 µM) | relative viability (Elesclomol + Dasatinib; first compound 0.01 µM) | relative viability (Elesclomol + Dasatinib; first compound 0.03162 µM) | relative viability (Elesclomol + Dasatinib; first compound 0.1 µM) | relative viability (Elesclomol + Trametinib; first compound 0.003162 µM) | relative viability (Elesclomol + Trametinib; first compound 0.01 µM) | relative viability (Elesclomol + Trametinib; first compound 0.03162 µM) | relative viability (Elesclomol + Trametinib; first compound 0.1 µM) | relative viability (Elesclomol + Lapatinib; first compound 0.003162 µM) | relative viability (Elesclomol + Lapatinib; first compound 0.01 µM) | relative viability (Elesclomol + Lapatinib; first compound 0.03162 µM) | relative viability (Elesclomol + Lapatinib; first compound 0.1 µM) | relative viability (Elesclomol + Navitoclax; first compound 0.003162 µM) | relative viability (Elesclomol + Navitoclax; first compound 0.01 µM) | relative viability (Elesclomol + Navitoclax; first compound 0.03162 µM) | relative viability (Elesclomol + Navitoclax; first compound 0.1 µM) |
| --- | --- | --- | --- | --- | --- | --- | --- | --- | --- | --- | --- | --- | --- | --- | --- | --- | --- | --- | --- | --- |
| NCI-H2170 | 1.02 | 1.03 | 0.977 | 0.764 | 0.546 | 0.539 | 0.484 | 0.43 | 0.949 | 0.95 | 0.898 | 0.607 | 0.273 | 0.285 | 0.259 | 0.257 | 0.628 | 0.475 | 0.493 | 0.245 |
| NCI-H2228 | 0.863 | 0.844 | 0.252 | 0.054 | 0.545 | 0.269 | 0.2 | 0.039 | 0.573 | 0.228 | 0.177 | 0.0514 | 0.953 | 0.66 | 0.33 | 0.103 | 0.739 | 0.586 | 0.325 | 0.0519 |
| NCI-H2347 | 1.06 | 0.701 | 0.482 | 0.942 | 0.29 | 0.373 | 0.287 | 0.185 | 0.341 | 0.264 | 0.33 | 0.256 | 0.876 | 0.776 | 0.902 | 0.761 | 0.809 | 0.668 | 0.905 | 0.299 |
| NCI-H2405 | 1.04 | 0.663 | 0.336 | 0.292 | 0.227 | 0.231 | 0.222 | 0.203 | 0.687 | 0.468 | 0.295 | 0.272 | 1.16 | 0.292 | 0.291 | 0.289 | 0.619 | 0.178 | 0.137 | 0.132 |
| NCI-H3122 | 1.01 | 0.961 | 0.839 | 0.135 | 0.836 | 0.947 | 0.587 | 0.0775 | 0.23 | 0.21 | 0.216 | 0.0967 | 0.999 | 0.989 | 0.978 | 0.434 | 1.05 | 1.03 | 1.01 | 0.247 |
| PC-3 [JPC-3] | 0.996 | 1.02 | 1.17 | 0.559 | 0.913 | 0.914 | 1.05 | 0.647 | 0.714 | 0.473 | 0.435 | 0.5 | 0.43 | 0.386 | 0.519 | 0.405 | 0.866 | 0.682 | 0.794 | 0.7 |
| PC-14 | 1.02 | 0.827 | 0.484 | 0.0715 | 0.0703 | 0.0327 | 0.0099 | 0.0111 | 0.206 | 0.0608 | 0.0204 | 0.0164 | 0.337 | 0.295 | 0.228 | 0.0843 | 0.977 | 0.719 | 0.0635 | 0.0562 |
| RERF-LC-KJ | 0.858 | 0.812 | 0.522 | 0.323 | 0.37 | 0.326 | 0.255 | 0.157 | 0.753 | 0.536 | 0.572 | 0.28 | 0.909 | 0.756 | 0.398 | 0.299 | 0.47 | 0.288 | 0.293 | 0.191 |
| SK-LU-1 | 0.803 | 0.668 | 0.459 | 0.193 | 0.199 | 0.197 | 0.161 | 0.0738 | 0.517 | 0.316 | 0.287 | 0.338 | 0.908 | 0.518 | 0.333 | 0.105 | 1.08 | 0.704 | 0.167 | 0.172 |
| SK-MES-1 | 0.87 | 0.502 | 0.859 | 0.854 | 0.413 | 0.25 | 0.187 | 0.148 | 0.584 | 0.635 | 0.501 | 0.415 | 0.563 | 0.446 | 0.429 | 0.325 | 1.28 | 0.97 | 1.03 | 0.385 |
| SW 1573 | 0.769 | 0.65 | 0.165 | 0.0891 | 0.192 | 0.094 | 0.043 | 0.0143 | 0.192 | 0.115 | 0.0701 | 0.0281 | 1.04 | 0.517 | 0.185 | 0.135 | 0.918 | 0.102 | 0.0652 | 0.0513 |
| UMC-11 | 1.01 | 0.91 | 0.789 | 0.482 | 0.439 | 0.423 | 0.374 | 0.235 | 0.703 | 0.653 | 0.407 | 0.369 | 0.952 | 0.837 | 0.505 | 0.328 | 0.277 | 0.311 | 0.22 | 0.143 |
